Assay results taken from PMC10896388, “Hybrid Allosteric Modulators of M1 Muscarinic Receptors Enhance Acetylcholine Efficacy and Decrease Locomotor Activity and Turning Behaviors in Zebrafish” (Research Square, 2024).
Entries after “also recorded” stand apart in the source; their conditions may differ. Like-named read-outs stand apart in the source and are kept apart here.

Experiments:
[1] = tested on: wild-type (AB) zebrafish (Danio rerio); test: Maximum tolerated concentration (MTC) determination in zebrafish larvae; format: in vivo; details: for MTC (maximum tolerated concentration): 5 dpf zebrafish larvae, after 24-hr exposure
Method: Determination of maximum tolerated concentration (adapted from Berghmans)[52] was completed by placing 5 days post fertilization (dpf) wild-type zebrafish larvae in a 24 well plate at 6 fish per well, and one compound concentration per well. […] Death was determined by the absence of heartbeat. Additional endpoints were used to assess toxicity at non-lethal concentrations such as startle capacity (poke stimulus), abnormalities in swimming behavior (loss of dorsoventral balance), and gross morphological deformities (bent body). […] The MTC determination was used to select three doses of each compound (low, medium, high dose) to be used in behavioral assays.

[2] = tested on: wild-type (AB) zebrafish (Danio rerio); test: animal or person; format: in vivo; details: for Therap. Index: zebrafish, apparently MTC / MEC
Method: The movement of larval zebrafish was monitored with the Noldus behavior recording system (Noldus Information Technology, Leesburg VA) and quantified using EthoVision® XT 15 software (Noldus Information Technology, Leesburg VA). Five-dpf zebrafish larvae were exposed to a range of nonlethal concentrations of compounds in a 24-well plate with appropriate controls. The plate was immediately placed in the incubator for a 30-minute exposure period. After 30 minutes, the plate was transferred to the Noldus system and swimming behavior was recorded in 100% light for 30 minutes to measure spontaneous swimming behavior. The light was switched off for 10 minutes (dark period) and then switched on for 10 minutes (light period), which was then repeated for two additional cycles. In total, the larvae were exposed to three cycles of alternating 10-minute dark and light periods (100% darkness-to-100% light). Each drug challenge was conducted on three separate plates with n = 6 larvae/dose/plate.
Absolute turn angle (TA) and angular velocity provided measures of the extent of turning behavior, while the intra-individual variance of turn angle quantified how consistently (low variance) or inconsistently (high variance) fish turned. A lowered intra-individual variance of turning reflected repeatedly performing the same turning behavior, a stereotypy.[53]
All data for exposure and the behavioral end points were analyzed by one-way ANOVA (factor: drug concentration) followed by a Dunnett’s multiple comparisons test for post hoc significance between drug concentration and control group. Statistically significant differences are noted as follows; *, p < 0.05; **, p < 0.01; ***, p < 0.001.

[3] = biological target: T1, human M1 muscarinic receptors (Homo sapiens, UniProt P11229); test: [3H]-arachidonic acid release in CHO cells expressing M1 receptors, with and without ACh; format: cell-based; set-up: expressed in transfected cells; host or cells: CHO cells (stably transfected CHO-hM1, from Mark Brann's laboratory, NIH); details: for No ACh: agonist effect of the allosteric ligand by itself, fraction of the maximal response that could be elicited by ACh / 0.1 µM ACh: response with modulator present divided by response to ACh alone / 100 µM ACh: response with modulator present divided by response to ACh alone: modulator 10 µM, mean ± s.e.m.; for No ACh: agonist effect of the allosteric ligand by itself, fraction of the maximal response that could be elicited by ACh: at least 4 determinations
T1 sequence (P11229 1-460): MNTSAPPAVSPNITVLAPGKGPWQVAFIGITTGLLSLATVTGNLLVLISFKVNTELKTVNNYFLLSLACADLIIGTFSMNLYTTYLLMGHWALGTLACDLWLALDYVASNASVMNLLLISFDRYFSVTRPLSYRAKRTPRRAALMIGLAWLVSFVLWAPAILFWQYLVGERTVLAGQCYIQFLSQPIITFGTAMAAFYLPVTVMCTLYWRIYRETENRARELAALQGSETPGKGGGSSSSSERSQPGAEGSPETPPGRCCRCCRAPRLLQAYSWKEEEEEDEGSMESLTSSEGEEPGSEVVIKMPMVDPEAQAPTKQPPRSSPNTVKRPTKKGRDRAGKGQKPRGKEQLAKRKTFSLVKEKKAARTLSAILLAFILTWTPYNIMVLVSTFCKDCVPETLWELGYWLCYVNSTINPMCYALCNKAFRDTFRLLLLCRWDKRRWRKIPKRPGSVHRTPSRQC
Method: CHO cells expressing human M1 muscarinic receptors were cultured at 37°C in a 5% CO2 atmosphere in F12 medium supplemented with 5% fetal bovine serum, 100 units/mL penicillin, and 100µg/mL streptomycin. These cells were obtained from Mark Brann’s laboratory when they were at NIH and have been in use by us and others for many years.[49]
Measurement of [^3H]AA release was performed as described in Stahl and Ellis.[24] Stably transfected CHO-hM1 cells were seeded on 24-well plates (Greiner Bio-One GmbH, Frickenhausen, Germany) at a density of 5.0 × 10^4 cells/well in 0.5 ml of F-12 medium. Cells were incubated until they attached (approximately 3 h), followed by the addition of [^3H]AA to a final concentration of 0.05 µCi of [^3H]AA per well. The cells were then grown for 16 to 20 h before the assay was performed. [^3H]AA release was measured in Eagle’s basal medium with 20 mM HEPES and 2 mg/ml fatty acid-free bovine serum albumin (EM-BSA). Cells were rinsed twice with EM-BSA, followed by the addition of EM-BSA media containing experimental agents and incubated for 1 h at 37°C. The assay was terminated by aspiration of the media, and the amount of [^3H]AA released was determined by liquid scintillation counting (Beckman-Coulter LS6500). […]
Tabulated [^3H]AA release data are represented as a fraction of maximal release elicited by ACh or as the fraction of release elicited by the relevant concentration of ACh alone, as indicated. Dose-response curves were normalized to the maximal response of ACh without allosteric ligand. Where indicated, response curves were analyzed using the empirical four-parameter equation: […] where X is the concentration of the ligand used, Y is the amount of response, C50 is the concentration of the ligand that produces 50% of the maximal effect, Top and Bottom are the top and bottom plateaus of the curve, and n is related to the Hill slope for the curve. Where indicated, families of response curves were analyzed according to an allosteric operational model:[50],[51]

[4] = [3H]AA release, CHO-hM1, modulators at 10 µM (amiodarone 30 µM)

CCCCc1oc2ccccc2c1C(=O)c1cc(I)c(OCCN(CC)CC)c(I)c1 [Amiodarone, reference compound]
MTC (maximum tolerated concentration) [1]: 10 µM
concentration that produced death ([1]; zebrafish larvae): 100 µM

COc1ccc(Cn2cc(C(=O)O)c(=O)c3ccccc32)cc1 [BQCA, reference compound]
effect on locomotor activity and turning behaviors (in words) ([2]; AB zebrafish, 30-minute spontaneous swimming period): decreased overall locomotor activity
modulation of ACh response (in words) [3]: enhanced potency without appreciable effect on maximal response
No ACh: agonist effect of the allosteric ligand by itself, fraction of the maximal response that could be elicited by ACh ([3]; CHO-hM1): 0.02 ± 0.00

CCCCc1oc2ccccc2c1C(=O)c1cc(I)c(OCCNCC)c(I)c1.Cl [Compound 1, (2-butylbenzofuran-3-yl)(4-(2-(ethylamino)ethoxy)-3,5-diiodophenyl)methanone hydrochloride]
Therap. Index [2]: 1
modulation of ACh response (in words) [3, 4]: suppressed the maximal ACh response
MTC (maximum tolerated concentration) [1]: 3 µM

CCCCc1oc2ccccc2c1C(=O)c1cc(I)c(OCC[N+](CC)(CC)CC)c(I)c1 [Compound 2, N-ethyl amiodarone, reference compound]
modulation of ACh response (in words) [3, 4]: NAM of mAChR potency and efficacy
MTC (maximum tolerated concentration) [1]: 1 µM

CCCCc1oc2ccccc2c1C(=O)c1cc(I)c(O)c(I)c1 [Compound 3, reference compound]
modulation of ACh response (in words) [3, 4]: suppressed the maximal ACh response
MTC (maximum tolerated concentration) [1]: 3 µM

CCCCc1oc2ccccc2c1C(=O)c1ccc(O)cc1 [Compound 4, reference compound]
modulation of ACh response (in words) [3, 4]: suppressed the maximal ACh response
MTC (maximum tolerated concentration) [1]: 0.3 µM

CCCCc1oc2ccccc2c1C(=O)c1cc(I)c(OCCN(CC)C(C)=O)c(I)c1 [Compound 5a, N-(2-(4-(2-butylbenzofuran-3-carbonyl)-2,6-diiodophenoxy)ethyl)-N-ethylacetamide]
intrinsic agonist activity (in words) ([3]; [3H]AA release in the absence of ACh, 10 µM): significant intrinsic agonist activity
increase in mAChR activity compared to treatment with ACh alone ([3]; [3H]AA release, CHO-hM1, predominantly at higher doses of ACh (Table 2, not available)): 70%
MTC (maximum tolerated concentration) [1]: 10 µM

CCCCc1oc2ccccc2c1C(=O)c1ccc(OC)cc1 [Compound 6a, (2-butylbenzofuran-3-yl)(4-methoxyphenyl)methanone]
MTC (maximum tolerated concentration) [1]: 3 µM

CCCCc1oc2ccccc2c1C(=O)c1cc(I)c(OC)c(I)c1 [Compound 6b, (2-butylbenzofuran-3-yl)(3,5-diiodo-4-methoxyphenyl)methanone]
modulation of ACh response (in words) [3, 4]: increased ACh activity
MTC (maximum tolerated concentration) [1]: 30 µM

CCCCc1oc2ccccc2c1C(=O)c1ccc(OCCN(CC)CC)cc1 [Compound 6c, (2-butylbenzofuran-3-yl)(4-(2-(diethylamino)ethoxy)phenyl)methanone]
Therap. Index [2]: 30
modulation of ACh response (in words) [3, 4]: decreased ACh activity
MTC (maximum tolerated concentration) [1]: 3 µM

COc1ccc(CN2C(=O)C(=O)c3ccccc32)cc1I [Compound 8b, 1-(3-iodo-4-methoxybenzyl)indoline-2,3-dione]
Therap. Index [2]: 10
MTC (maximum tolerated concentration) [1]: 10 µM

COc1ccc(CN2C(=O)C(=O)c3ccccc32)cc1Br [Compound 8d, 1-(3-bromo-4-methoxybenzyl)indoline-2,3-dione]
Therap. Index [2]: 100
MTC (maximum tolerated concentration) [1]: 100 µM

COc1c(Cl)cc(CN2C(=O)C(=O)c3ccccc32)cc1Cl [Compound 8e, 1-(3,5-dichloro-4-methoxybenzyl)indoline-2,3-dione]
Therap. Index [2]: 100
MTC (maximum tolerated concentration) [1]: 100 µM

COc1ccc(CN2C(=O)C(=O)c3ccccc32)cc1Cl [Compound 8f, 1-(3-chloro-4-methoxybenzyl)indoline-2,3-dione]
Therap. Index [2]: 3.3
MTC (maximum tolerated concentration) [1]: 10 µM

COc1c(F)cc(CN2C(=O)C(=O)c3ccccc32)cc1F [Compound 8g, 1-(3,5-difluoro-4-methoxybenzyl)indoline-2,3-dione]
Therap. Index [2]: 30
MTC (maximum tolerated concentration) [1]: 30 µM

COc1ccc(CN2C(=O)C(=O)c3ccccc32)cc1F [Compound 8h, 1-(3-fluoro-4-methoxybenzyl)indoline-2,3-dione]
Therap. Index [2]: 10
MTC (maximum tolerated concentration) [1]: 30 µM

O=C1C(=O)N(Cc2cc(F)c(F)c(F)c2)c2ccccc21 [Compound 8i, 1-(3,4,5-trifluorobenzyl)indoline-2,3-dione]
Therap. Index [2]: 10
MTC (maximum tolerated concentration) [1]: 10 µM

COc1cc(CN2C(=O)C(=O)c3ccccc32)cc(OC)c1OC [Compound 8k, 1-(3,4,5-trimethoxybenzyl)indoline-2,3-dione]
Therap. Index [2]: 30
MTC (maximum tolerated concentration) [1]: 30 µM

CCN(CC)CCOc1c(Br)cc(CN2C(=O)C(=O)c3ccccc32)cc1Br.Cl [Compound 8l, 1-(3,5-dibromo-4-(2-(diethylamino)ethoxy)benzyl)indoline-2,3-dione hydrochloride]
Therap. Index [2]: 1
modulation of ACh response (in words) [3, 4]: only decreased ACh activity; also recorded: decreased ACh potency with little impact on ACh efficacy
MTC (maximum tolerated concentration) [1]: 10 µM

O=C1C(=O)N(Cc2ccc(O)cc2)c2ccccc21 [Compound 10, 1-(4-hydroxybenzyl)indoline-2,3-dione]
Therap. Index [2]: 3.3
MTC (maximum tolerated concentration) [1]: 10 µM

CCCCc1oc2ccc(NS(C)(=O)=O)cc2c1C(=O)c1ccc(OCCCN(CCCC)CCCC)cc1 [Dronedarone, reference compound]
Therap. Index [2]: 1
0.1 µM ACh: response with modulator present divided by response to ACh alone ([3]; CHO-hM1): 0.25 ± 0.05
100 µM ACh: response with modulator present divided by response to ACh alone ([3]; CHO-hM1): 0.75 ± 0.07
No ACh: agonist effect of the allosteric ligand by itself, fraction of the maximal response that could be elicited by ACh ([3]; CHO-hM1): 0.08 ± 0.01
MTC (maximum tolerated concentration) [1]: 10 µM

O=C1C(=O)N(Cc2ccc(Br)cc2)c2ccccc21 [VU0119498, reference compound]
0.1 µM ACh: response with modulator present divided by response to ACh alone ([3]; CHO-hM1): 1.28 ± 0.12
100 µM ACh: response with modulator present divided by response to ACh alone ([3]; CHO-hM1): 1.03 ± 0.05
No ACh: agonist effect of the allosteric ligand by itself, fraction of the maximal response that could be elicited by ACh ([3]; CHO-hM1): 0.06 ± 0.01
